Assays:
[1] = target: T1, myosin ATPase, Porcine Ventricle myofibrils (Sus scrofa, UniProt P79293); assay: Myofibril ATPase assay, porcine ventricle myofibrils; format: biochemical, porcine (Yucatan minipigs); conditions: concentration required to reduce myosin ATP-ase activity by 25%; Porcine Ventricle Prep pCa 25 GEOM_MEAN
T1 construct: Myofibrils from porcine cardiac muscle was isolated from the left ventricle of Yucatan minipigs; tissue Exemplar Genetics; host or cells: left ventricle of Yucatan minipigs, myofibrils
T1 sequence (P79293 whole entry): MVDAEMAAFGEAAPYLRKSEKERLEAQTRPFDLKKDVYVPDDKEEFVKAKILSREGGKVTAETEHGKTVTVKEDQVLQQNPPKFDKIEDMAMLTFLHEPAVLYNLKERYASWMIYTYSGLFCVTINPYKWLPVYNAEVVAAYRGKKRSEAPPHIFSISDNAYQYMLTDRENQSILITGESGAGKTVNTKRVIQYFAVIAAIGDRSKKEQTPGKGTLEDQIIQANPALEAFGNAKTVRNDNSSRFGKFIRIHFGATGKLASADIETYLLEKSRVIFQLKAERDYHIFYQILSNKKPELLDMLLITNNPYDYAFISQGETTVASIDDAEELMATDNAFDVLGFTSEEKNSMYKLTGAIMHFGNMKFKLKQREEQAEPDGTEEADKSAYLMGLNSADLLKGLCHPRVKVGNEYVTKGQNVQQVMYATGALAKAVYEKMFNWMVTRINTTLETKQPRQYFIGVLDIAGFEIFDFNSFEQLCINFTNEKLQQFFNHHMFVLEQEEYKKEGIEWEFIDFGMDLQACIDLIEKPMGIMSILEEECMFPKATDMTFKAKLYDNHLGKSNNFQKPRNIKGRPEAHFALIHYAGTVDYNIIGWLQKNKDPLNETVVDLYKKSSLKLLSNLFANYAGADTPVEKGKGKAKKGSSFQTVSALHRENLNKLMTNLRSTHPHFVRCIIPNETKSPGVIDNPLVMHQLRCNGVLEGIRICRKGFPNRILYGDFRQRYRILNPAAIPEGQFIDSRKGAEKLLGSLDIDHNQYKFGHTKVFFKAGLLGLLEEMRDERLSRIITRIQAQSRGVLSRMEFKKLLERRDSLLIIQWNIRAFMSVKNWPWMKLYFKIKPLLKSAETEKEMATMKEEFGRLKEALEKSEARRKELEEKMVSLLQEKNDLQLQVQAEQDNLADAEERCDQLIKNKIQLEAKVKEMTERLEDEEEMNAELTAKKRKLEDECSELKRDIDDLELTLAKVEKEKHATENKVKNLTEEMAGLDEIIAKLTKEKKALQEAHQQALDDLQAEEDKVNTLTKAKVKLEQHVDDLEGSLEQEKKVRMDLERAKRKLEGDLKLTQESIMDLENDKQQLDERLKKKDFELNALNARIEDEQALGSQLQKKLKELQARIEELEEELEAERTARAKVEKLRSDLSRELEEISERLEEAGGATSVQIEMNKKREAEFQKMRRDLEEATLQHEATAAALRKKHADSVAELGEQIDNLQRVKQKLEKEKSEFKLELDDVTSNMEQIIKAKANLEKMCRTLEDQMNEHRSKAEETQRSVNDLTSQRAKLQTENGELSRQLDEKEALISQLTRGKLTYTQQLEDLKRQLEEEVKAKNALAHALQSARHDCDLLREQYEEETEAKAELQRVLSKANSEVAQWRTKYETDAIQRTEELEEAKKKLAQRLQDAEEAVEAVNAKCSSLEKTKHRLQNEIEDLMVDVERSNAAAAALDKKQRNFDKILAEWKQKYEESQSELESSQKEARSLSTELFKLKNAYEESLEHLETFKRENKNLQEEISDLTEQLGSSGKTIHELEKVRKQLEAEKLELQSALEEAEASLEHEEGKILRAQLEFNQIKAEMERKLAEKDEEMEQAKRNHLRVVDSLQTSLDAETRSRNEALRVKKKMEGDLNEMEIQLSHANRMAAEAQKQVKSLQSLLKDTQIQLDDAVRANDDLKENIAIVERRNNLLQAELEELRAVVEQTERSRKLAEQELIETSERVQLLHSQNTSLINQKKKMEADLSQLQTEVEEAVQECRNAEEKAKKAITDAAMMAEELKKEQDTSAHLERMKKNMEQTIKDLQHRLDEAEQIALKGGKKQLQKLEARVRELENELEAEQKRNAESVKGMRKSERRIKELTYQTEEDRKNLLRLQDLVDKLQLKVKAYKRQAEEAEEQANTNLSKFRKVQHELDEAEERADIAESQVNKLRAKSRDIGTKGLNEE
Protocol: (§1) Myofibril ATPase assays are known in the art to be useful in evaluating small molecules for the treatment of HCM and other cardiac indications. Myosin ATPase activity is assessed by using a coupled reaction system, in which ADP generated by the myosin ATPase function is coupled to the disappearance of NADH through the pyruvate kinase/lactate dehydrogenase (PK-LDH) system. ATPase activity produces ADP, which is used as a substrate for PK to produce pyruvate and regenerate ATP. The pyruvate is then used as a substrate by LDH to oxidize NADH to NAD+. The rate of the reaction is monitored through the time-dependent disappearance of NADH using absorbance at 340 nm, which, when the couple system is in stoichiometric excess, is directly correlated to the ATPase activity of the myosin. Inhibition of ATPase activity by the assayed compounds is indicated by a reduced rate of NADH loss, relative to vehicle-treated controls, over the experimental time window. Porcine Ventricle are the primary sources of myofibril material.
(§2) Materials: The following stock solutions and reagents were used in the Myofibril ATPase Assay: Stock Solutions; PIPES, 200 mM and 120 mM in H2O, pH 7.0; MgCl2 in H2O, 200 mM; PM12 Buffer, 10×: 120 mM PIPES (from 200 mM stock), 20 mM MgCl2 (from 200 mM stock); PBS Buffer, 1X: 135 mM NaCl, […], 10 mM Na(PO4)2, 1.8 mM K2(PO4), pH 7.4; EGTA in H2O, 250 mM; CaCl2) in H2O, 500 mM; DTT in H2O, 1 M; BSA in H2O, 10 mg/mL; ATP in 1×PBS, 50 mM; NADH in 1X PM12 and 1 mM DTT, 26 mM; PEP in 1X PM12, 78 mM, pH 7.0.
(§3) Stock Solutions of pCa buffer. Combine PIPES, CaCl2, and EGTA solutions with water. Adjust pH to 7.0 and bring final volume to 100 mL.
(§4) Buffer A & Buffer B. Prepare buffers A and B according to the table below.
(§5) Myofibril ATPase Assay Procedure: BSA, ATP, NADH, PEP, and DTT solutions were thawed at room temperature, then transferred to ice. Pellet-frozen myofibrils were transferred with approximately twice the required volume into a sufficiently large tube and capped. Myofibrils were thawed by rolling in a water bath for approximately 15 min at room temperature and cooled on ice. Buffers A and B were prepared by adjusting volumes as necessary for required number of wells and stored on ice. 0.5 μL of the compounds to be assayed were added into wells. 25 μL of Buffer A was dispensed into the wells, followed by 25 μL of Buffer B. The wells were measured for absorbance at 340 nm, using a kinetic protocol in which the wells are read every 1.5-2 min for 75 min. Assay data analysis was performed using a python script that filtered the raw data to retain those points falling between a starting and ending time and between a maximum and minimum absorbance, then used the filtered time-domain 340 nm absorbance data in each well to calculate a slope via linear regression analysis in units of mAU/min. Compound slopes were normalized between 100% and 0% activity, where 100% represented the slope of wells containing only compound vehicle, and fit to a 4-parameter logistic model. In addition to the fit parameters, the EC25% values were calculated, relative to the 100% normalized value. Additionally, the Y125 values were calculated for compounds that increased myosin ATP-ase activity. Fit parameters, calculated effective concentrations, filtered raw data, and calculated slopes were exported, in addition to compound-specific graphs of normalized ATPase activity versus concentration in μM. Each value reported in Table 8 is either a Y75 value or a Y125 value. Values without pound sign, #, are Y75 values, which reflect the concentration required to reduce myosin ATP-ase activity by 25% (e.g., Y-axis activity value is 75% of initial value), relative to myosin ATP-ase activity in the absence of exogenous compound. […]

[2] = test system: myosin ATPase, Rabbit Psoas myofibrils; assay: Myofibril ATPase assay, rabbit psoas (skeletal) myofibrils; format: biochemical; conditions: Rabbit Psoas Prep pCa 25 GEOM_MEAN; for Rabbit Psoas EC25 (Y75 value): concentration required to reduce myosin ATP-ase activity by 25%; for Rabbit Psoas Y125 value (marked #): concentration required to increase myosin ATP-ase activity by 25%
Protocol: [Worded in the source for another species; this species is reported under the same test.] as §1, §2, §3, §4, §5

[3] = test system: myosin ATPase, Porcine Atria myofibrils; assay: Myofibril ATPase assay, porcine atria myofibrils; format: biochemical; conditions: concentration required to reduce myosin ATP-ase activity by 25%; Porcine Atria Prep pCa 25 GEOM_MEAN

SMILES | Porcine Ventricle EC25 (Y75 value) [1] | Rabbit Psoas EC25 (Y75 value) [2] | Porcine Atria EC25 (Y75 value) [3] | Rabbit Psoas Y125 value (marked #) [2]
C[C@H](NC(=O)Cn1c(=O)[nH]c2ccc(C#N)cc2c1=O)c1ncc(C#N)cc1F (single isomer, unassigned) [Compound 16] | 14.04 µM | 5.743 µM | 0.57 µM | 
C[C@@H](NC(=O)Cn1c(=O)[nH]c2ccc(F)c(F)c2c1=O)c1ccc(C#N)cn1 (single isomer, unassigned) [Compound 17] | 10.16 µM | 9.016 µM | 0.427 µM | 
C[C@H](NC(=O)Cn1c(=O)[nH]c2ccc(F)c(F)c2c1=O)c1ccc(C#N)cn1 (single isomer, unassigned) [Compound 18] | 5.522 µM | 0.512 µM | 0.378 µM | 
Cc1nccc2[nH]c(=O)n(CC(=O)N[C@H](C)c3ncc(C#N)cc3F)c(=O)c12 (single isomer, unassigned) [Compound 19] | 100 µM | 21.6 µM | 15.77 µM | 
C[C@@H](NC(=O)Cn1c(=O)[nH]c2ccc(F)c(F)c2c1=O)c1ncc(C#N)cc1F (single isomer, unassigned) [Compound 21] | 0.615 µM | 1.66 µM | 1.799 µM | 
C[C@H](NC(=O)Cn1c(=O)[nH]c2ccc(F)c(F)c2c1=O)c1ncc(C#N)cc1F (single isomer, unassigned) [Compound 22] | 0.205 µM | 0.036 µM | 0.083 µM | 
CC(C)C[C@@H](C(=O)N[C@@H](C)c1ncc(F)cc1F)n1c(=O)[nH]c2ccccc2c1=O (single isomer, unassigned) [Compound 27] | 100 µM | 100 µM | 100 µM | 
CC(C)C[C@H](C(=O)N[C@@H](C)c1ncc(F)cc1F)n1c(=O)[nH]c2ccccc2c1=O (single isomer, unassigned) [Compound 28] | 100 µM | 39.563 µM | 59.55 µM | 
CC(C)C[C@@H](C(=O)N[C@@H](C)c1ccc(F)cc1F)n1c(=O)[nH]c2ccccc2c1=O (single isomer, unassigned) [Compound 31] | 59.48 µM |  | 56.82 µM | 24.3^# μM
CC(C)C[C@H](C(=O)N[C@@H](C)c1ccc(F)cc1F)n1c(=O)[nH]c2ccccc2c1=O (single isomer, unassigned) [Compound 32] | 100 µM |  | 68.73 µM | 7.64^#^ μM
C[C@H](NC(=O)[C@H](C)n1c(=O)[nH]c2cccc(O)c2c1=O)c1ccc(F)cc1F (single isomer, unassigned) [Compound 35] | 1.64 µM | 0.086 µM | 0.0835 µM | 
C[C@H](NC(=O)[C@@H](C)n1c(=O)[nH]c2cccc(O)c2c1=O)c1ccc(F)cc1F (single isomer, unassigned) [Compound 36] | 1.35 µM | 0.104 µM | 0.0803 µM | 
O=C(Cn1c(=O)[nH]c2ccncc2c1=O)N[C@H]1CCc2cc(F)cc(F)c21 (single isomer, unassigned) [Compound 44] | 100 µM | 1.145 µM | 36.5 µM | 
O=C(Cn1c(=O)[nH]c2ccccc2c1=O)N[C@H]1CCc2cc(F)cc(F)c21 (single isomer, unassigned) [Compound 48] | 7.872 µM | 0.156 µM | 0.4184 µM | 
CC[C@H](NC(=O)Cn1c(=O)[nH]c2ccccc2c1=O)c1ccc(F)cc1F (single isomer, unassigned) [Compound 49] | 100 µM | 100 µM | 100 µM | 
CC(C)[C@H](NC(=O)Cn1c(=O)[nH]c2ccccc2c1=O)c1ccc(F)cc1F (single isomer, unassigned) [Compound 50] | 100 µM | 100 µM | 100 µM | 
O=C(Cn1c(=O)[nH]c2ccccc2c1=O)N[C@H]1CCCc2cc(F)cc(F)c21 (single isomer, unassigned) [Compound 55] | 100 µM | 100 µM | 100 µM | 
O=C(Cn1c(=O)[nH]c2ccccc2c1=O)N[C@@H]1CCCc2cc(F)cc(F)c21 (single isomer, unassigned) [Compound 57] | 25.71 µM | 0.937 µM | 1.067 µM | 
CC(C)C[C@H](NC(=O)Cn1c(=O)[nH]c2ccccc2c1=O)c1ccc(F)cc1F (single isomer, unassigned) [Compound 70] | 100 µM |  | 100 µM | 90.27^# μM
C[C@H](NC(=O)Cn1c(=O)[nH]c2ccccc2c1=O)c1ccc(O)nc1 (single isomer, unassigned) [Compound 98] | 100 µM | 100 µM | 100 µM | 
C[C@H](NC(=O)Cn1c(=O)[nH]c2ccccc2c1=O)c1ccncc1F (single isomer, unassigned) [Compound 99] | 100 µM | 100 µM | 100 µM | 
C[C@@H](NC(=O)Cn1c(=O)[nH]c2ccccc2c1=O)c1ccncc1F (single isomer, unassigned) [Compound 100] | 100 µM | 12.272 µM | 31.84 µM | 
